Measurements from article PMC7617869, “Molecular glues that inhibit deubiquitylase activity and inflammatory signaling” (Nature Structural & Molecular Biology, 2025).
pIC50: −log10 of the molar value. Several values for one entry are separate records, joined by “and”; a condition that tells them apart may be missing. Equal values may be shown once.

How the values were obtained:
BRISC BRCC45 C245A = BRISC BRCC45 C245A (Homo sapiens, UniProt P46736+Q15018+Q9NXR7, C245A); assay: BRISC mutant IQF assay: BRCC45 C245A; format: biochemical
Method: (§1) IQF assays were performed in DUB reaction buffer containing 50 mM HEPES–NaOH pH 7.0, 100 mM NaCl, 0.1 mg ml^−1 BSA, 1 mM DTT and 0.03% v/v Brij-35. […] The final concentration of BRISC WT, all BRISC mutants, HsBRISCΔLoop, MmBRISC and DrBRISCΔNΔC was 1 nM. Other enzymes were tested at the following concentrations: 5 nM ARISC (FL), 10 nM CfBRISCΔNΔC, 250 nM AMSH* (ref. [43]), 500 nM USP2 and 1 μM trypsin (Sigma, 9002-07-7). For Michaelis–Menten experiments, 1 nM BRISC with 0–1 μM IQF K63-linked diubiquitin substrate was used. Michaelis–Menten analyses and Lineweaver–Burk plots were calculated using GraphPad Prism (version 9.0).
(§2) To assess enzymatic activity, BRISC complexes were diluted to concentrations between 1 nM and 50 nM. […] Then, 20-μl enzyme reactions were carried out in 384-well black flat-bottom low-flange plates (Corning, 35373). DUB activity was measured using IQF K63-linked diubiquitin (LifeSensors, DU6303) at 50 nM. Cleaved diubiquitin was monitored by measuring fluorescence intensity (excitation, 544 nm; emission, 575 nm; dichroic mirror, 560 nm). Fluorescence intensity was measured every minute for 30 min at 30 °C. Fluorescence intensity units were plotted against time to generate a linear reaction progress curve, where the initial velocity (V0) corresponds to the gradient of the curve (typically achieved within 15 min). IC50 values were calculated using the GraphPad Prism (version 9.0) built-in dose–response equation for inhibitor concentration versus response (variable slope).

BRISC Abraxas2 T135K = BRISC Abraxas2 T135K (Homo sapiens, UniProt P46736+Q15018+Q9NXR7, T135K); assay: BRISC mutant IQF assay: Abraxas2 T135K; format: biochemical
Method: as §1, §2

BRISC BRCC45 F140A = BRISC BRCC45 F140A (Homo sapiens, UniProt P46736+Q15018+Q9NXR7, F140A); assay: BRISC mutant IQF assay: BRCC45 F140A; format: biochemical
Method: as §1, §2

DrBRISCΔNΔC = DrBRISCΔNΔC IQF DUB activity assay; format: biochemical, zebrafish (Danio rerio)
Method: as §1, §2

BRISC Abraxas2 T140A = BRISC Abraxas2 T140A (Homo sapiens, UniProt P46736+Q15018+Q9NXR7, T140A); assay: BRISC mutant IQF assay: Abraxas2 T140A; format: biochemical
Method: as §1, §2

[1] = FX-171-C 0.0035 μM, read-out: Normalised V0
[2] = FX-171-C 0.035 μM, read-out: Normalised V0
[3] = FX-171-C 0.35 μM, read-out: Normalised V0
[4] = FX-171-C 6.25 μM, read-out: Normalised V0
[5] = FX-171-C 12.5 μM, read-out: Normalised V0
[6] = FX-171-C 25 μM, read-out: Normalised V0
[7] = FX-171-C 3.1 μM, read-out: Normalised V0

pIC50 (BRISC BRCC45 C245A): 4.51
inhibitor sensitivity vs BRISC WT (BRISC BRCC45 C245A): reduced sensitivity to inhibition
remaining activity at 0.0035 µM (BRISC BRCC45 C245A; [1]): 97.7%
remaining activity at 0.035 µM (BRISC BRCC45 C245A; [2]): 74.6%
remaining activity at 0.35 µM (BRISC BRCC45 C245A; [3]): 94.7%
remaining activity at 6.25 µM (BRISC BRCC45 C245A; [4]): 66.4%
remaining activity at 12.5 µM (BRISC BRCC45 C245A; [5]): 43.3%
remaining activity at 25 µM (BRISC BRCC45 C245A; [6]): 46.6%
pIC50 (BRISC Abraxas2 T135K): 5.82
remaining activity at 0.35 µM (BRISC Abraxas2 T135K; [3]): 73.4%
remaining activity at 3.1 µM (BRISC Abraxas2 T135K; [7]): 20.9%
pIC50 (BRISC BRCC45 F140A): 5.37
inhibitor sensitivity vs BRISC WT (BRISC BRCC45 F140A): reduced sensitivity to inhibition
remaining activity at 0.0035 µM (BRISC BRCC45 F140A; [1]): 96%
remaining activity at 0.035 µM (BRISC BRCC45 F140A; [2]): 92.5%
remaining activity at 0.35 µM (BRISC BRCC45 F140A; [3]): 89.9%
remaining activity at 3.1 µM (BRISC BRCC45 F140A; [7]): 51.2%
remaining activity at 6.25 µM (BRISC BRCC45 F140A; [4]): 43.9%
remaining activity at 12.5 µM (BRISC BRCC45 F140A; [5]): 26.9%
remaining activity at 25 µM (BRISC BRCC45 F140A; [6]): 14.2%
remaining activity at 100 µM (BRISC BRCC45 F140A; FX-171-C 100 μM, read-out: Normalised V0): 5.06%
pIC50 (BRISC Abraxas2 T140A; Abraxas 2 T140A): 5.30
inhibitor sensitivity vs BRISC WT (BRISC Abraxas2 T140A; Abraxas 2 T140A): IC50 tenfold higher than BRISC WT
remaining activity at 0.0035 µM (BRISC Abraxas2 T140A; Abraxas2 T140A, FX-171-C 0.0035 μM, read-out: Normalised V0): 89.1%
remaining activity at 0.35 µM (BRISC Abraxas2 T140A; Abraxas2 T140A, FX-171-C 0.35 μM, read-out: Normalised V0): 99.5%
remaining activity at 3.1 µM (BRISC Abraxas2 T140A; Abraxas2 T140A, FX-171-C 3.1 μM, read-out: Normalised V0): 53.4%
Structure (SMILES): O=C(NC1C2CNCC21)c1nn(C(=O)c2c(Cl)cccc2Cl)cc1NC(=O)c1c(Cl)cccc1Cl (stereo not drawn) [FX-171-C]
inhibitor sensitivity vs BRISC WT (BRISC Abraxas2 T135K): moderate to little effect on inhibitor sensitivity
Normalised V0 (DrBRISCΔNΔC; FX-171-C 0.013 μM): 0.983 and 1.045 and 1.007 and 1.076 and 0.9046 and 1
Normalised V0 (DrBRISCΔNΔC; FX-171-C 0.02 μM): 0.9073 and 0.9513 and 0.9154
Normalised V0 (DrBRISCΔNΔC; FX-171-C 0.0399999 μM): 0.972 and 1.086 and 0.9939
Normalised V0 (DrBRISCΔNΔC; FX-171-C 0.0599997 μM): 1 and 1.042 and 0.951
Normalised V0 (DrBRISCΔNΔC; FX-171-C 0.0799994 μM): 1.257 and 1.072 and 1.014
Normalised V0 (DrBRISCΔNΔC; FX-171-C 0.119998 μM): 0.9667 and 1.1184 and 0.9769
Normalised V0 (DrBRISCΔNΔC; FX-171-C 0.199996 μM): 1.0445 and 1.023 and 0.9962
Normalised V0 (DrBRISCΔNΔC; FX-171-C 0.499975 μM): 0.9714 and 1.052 and 0.9507
Normalised V0 (DrBRISCΔNΔC; FX-171-C 0.799937 μM): 1.009 and 0.9333 and 0.8977
Normalised V0 (DrBRISCΔNΔC; FX-171-C 1.25984 μM): 0.9862 and 1.093 and 0.9451
Normalised V0 (DrBRISCΔNΔC; FX-171-C 1.9996 μM): 0.9182 and 0.9951 and 0.8213
Normalised V0 (DrBRISCΔNΔC; FX-171-C 3.159 μM): 1.042 and 0.9998 and 0.8593
Normalised V0 (DrBRISCΔNΔC; FX-171-C 5.19739 μM): 0.6448 and 0.9953 and 0.847
Normalised V0 (DrBRISCΔNΔC; FX-171-C 7.99364 μM): 0.9454 and 0.9127 and 0.9517
Normalised V0 (DrBRISCΔNΔC; FX-171-C 12.7839 μM): 0.9358 and 1.024 and 0.8831
Normalised V0 (DrBRISCΔNΔC; FX-171-C 19.96 μM): 0.6505 and 0.8985 and 0.8711
Normalised V0 (DrBRISCΔNΔC; FX-171-C 31.4999 μM): 0.752 and 0.7818 and 0.7739
Normalised V0 (DrBRISCΔNΔC; FX-171-C 50.147 μM): 0.6953 and 0.6278 and 0.7138
Normalised V0 (DrBRISCΔNΔC; FX-171-C 79.7601 μM): 0.6671 and 0.5066 and 0.3963
Normalised V0 (DrBRISCΔNΔC; FX-171-C 125.99 μM): 0.4739 and 0.3651 and 0.4262
Normalised V0 (DrBRISCΔNΔC; FX-171-C 199.922 μM): 0.313 and 0.2853 and 0.3043
